Reference: patent US4939177A, “Use of avarol for the control of AIDS and ARC” (Merz + Co. GmbH & Co., priority 1986, dated 1990)

Legend:
herpes simplex virus = conditions: in vitro, cultures of herpes simplex virus; cited from earlier work
[1] = tested on: mouse leukemia cells L5178-Y; conditions: in vitro and in vivo; cited from earlier work
[2] = tested on: L5178y mouse lymphoma cells; test: L5178y cell growth; format: cell-based; conditions: Mus musculus, L5178Y, absence of Avarol
Experimental: mouse lymphoma cells were grown in roller tube cultures in Eagle's minimum essential medium, supplemented with 10% horse serum (Muller et al., Cancer Res. 39: 1102-1107; 1979 and Muller et al. Cancer Res. 45: 4822-4826; 1985). […] The cell growth was determined by cell count with a computer supported cell-counter (128-channel counter; Cytocomp, system Michaelis: BIOTRON-Medizinelektronik, Mainz; West Germany). The ED50 (±SD) was estimated by logit regression (L. Sachs, […], Springer-Verlag, Berlin 1984). The mathematical evaluation of the fractional inhibitory concentration indices (FIC indices) of Avarol/Avarone-DDC combinations was performed according to published equations and experimental conditions (Muller et al., Cancer Lett. 1: 127-132; 1976; and Phillips et al., Antimicrob. Agents Chemother. 9: 736-740, 1976). […] In this set of experiments, […] cells were incubated with Avarol in the absence or presence of the established SODase inhibitor DDC.

[3] = tested on: DTH to oxazolone in NMRI mice; test: Contact allergy to oxazolone; format: in vivo, mouse; conditions: 30 mg/kg per os
Experimental: Allergic contact dermatitis against oxazolone was produced according to the method of Asherson and Ptak (Immunol. 15: 405-416; 1968) as well as those of Bure and Degrand (Agents and Actions 9: 534; 1979). Male NMRI mice (20-22 g; 10/group) were sensitized with 100 μl of a 2% oxazolone in acetone solution onto the shaved abdomen (day 0). Animals were treated with avarol (i.p.) daily from day -1 to +2 or from day +6 to +8; control group was treated with deoxymethasone (Casella-Hoechst) as a standard per os at a daily dose of 30 mg/kg for the same period of time as for avarol. Seven days after sensitization 10 μl of a 3% oxazolane (this concentration was previously found to give more reproducible results than the lower 2% concentration) solution were topically applied onto the inner side of one ear, whereas the other ear received only acetone. […] Treated groups were compared with controls using the U-test.

In the case of `CC1=CCC[C@H]2[C@](C)(CC3=CC(=O)C=CC3=O)[C@@H](C)CC[C@]12C` [Avarone], the virostatic action (herpes simplex virus) is listed as “certain virostatic action in vitro” and the antileukemic action [1] is listed as “antileukemic action”.

For `CCN(CC)C(=S)S` [DDC, diethyldithiocarbamate, reference compound], the inhibition at 1.46 µM ([2]; DDC 1.46 μM) was 26% and the inhibition at 1.71 µM ([2]; DDC 1.71 μM) was 38%.

For `C[C@@H]1C[C@H]2[C@@H]3CCC4=CC(=O)C=C[C@]4(C)[C@@]3(F)[C@@H](O)C[C@]2(C)[C@H]1C(=O)CO` [Deoxymethasone], the “influence on DTH reaction to oxazolone, in words” value ([3]; both schedules) was “significant immunosuppressive influence”, the “24 hours increase in ear thickness” value ([3]; day +6 to +8, control 18.5±3.7) was 10.9 ± 6.1 mg and the “24 hours increase in ear thickness” value ([3]; day -1 to +2, control 22.3±5.6) was 10.2 ± 6.0 mg.
